Patent publication US9168278B2, “Use for cannabinoid” (GW Pharma Limited, priority 2004, dated 2015)
Like-named read-outs stand apart in the source and are kept apart here.

Columns and labels:
[1] = tested on: mouse isolated vas deferens (P2 receptor agonist β,γ-methylene-ATP); assay: Contractile responses of the vas deferens to β,γ-methylene-ATP; conditions: for contractions induced by β,γ-methylene-ATP: at 1 μM
Method: (§1) Vasa deferentia were obtained from albino MF1 mice weighing 31 to 59 g. The tissues were mounted vertically in 4 ml organ baths. They were then subjected to electrical stimulation of progressively greater intensity followed by an equilibration procedure in which they were exposed to alternate periods of stimulation (2 min) and rest (10 min) until contractions with consistent amplitudes were obtained (Thomas et al., 2004). These contractions were monophasic and isometric and were evoked by 0.5 s trains of pulses of 110% maximal voltage (train frequency 0.1 Hz; pulse frequency 5 Hz; pulse duration 0.5 ms).
In experiments with β,γ-methylene-ATP, no electrical stimuli were applied after the equilibration procedure. Log concentration-response curves of β,γ-methylene-ATP were constructed cumulatively without washout. THCV, WIN or drug vehicle were added 30 min before the first addition of β,γ-methylene-ATP, each subsequent addition of which was made immediately after the effect of the previous dose had reached a plateau (dose cycles of 1 to 2 min).
(§2) Inhibition of the electrically-evoked twitch response of the vas deferens has been expressed in percentage terms and this has been calculated by comparing the amplitude of the twitch response after each addition of a twitch inhibitor with its amplitude immediately before the first addition of the inhibitor. Contractile responses to phenylephrine and β,γ-methylene-ATP have been expressed as increases in tension (g).

[2] = tested on: mouse isolated vas deferens; assay: Electrically-evoked contractions of the mouse isolated vas deferens
Method: Experiments were also carried out with the mouse isolated vas deferens, a tissue in which cannabinoid receptor agonists such as R-(+)-WIN55212, CP55940, THC and 2-arachidonoyl ethanolamide (anandamide) can inhibit electrically-evoked contractions (Devane et al., 1992; Pertwee et al., 1995).
Cannabinoid receptor agonists are thought to inhibit the electrically evoked contractions by acting on prejunctional neuronal cannabinoid CB1 receptors to inhibit release of the contractile neurotransmitters, ATP, (acting on postjunctional P2X purinoceptors), and noradrenaline, (acting on postjunctional α1-adrenoceptors), (Trendelenberg et al., 2000).
as §1
Except in experiments with phenylephrine, all drug additions were made to the organ baths after the equilibration period and there was no washout between these additions. In most experiments there was an initial application of a potential antagonist or its vehicle. This was followed 28 min later by a 2 min period of electrical stimulation at the end of which the lowest of a series of concentrations of the twitch inhibitors, R-(+)-WIN55212, CP55940, THC, anandamide, (−)-7-hydroxy-cannabidiol-dimethylheptyl or clonidine, was applied.
After a period of rest, the tissues were electrically stimulated for 2 min and then subjected to a further addition of twitch inhibitor.
This cycle of drug addition, rest and 2 min stimulation was repeated so as to construct cumulative concentration-response curves. Only one concentration-response curve was constructed per tissue. Rest periods were 3 min for clonidine, 13 min for R-(+)-WIN55212, CP55940 and anandamide, 28 min for THC and THCV, and 58 min for (−)-7-hydroxy-cannabidiol-dimethylheptyl.
Experiments were also performed with capsaicin. This drug was added at intervals of 3 min and the tissues were not rested from electrical stimulation between these additions.
In some experiments, cumulative concentration-response curves for THCV were constructed without prior addition of any other compound, again using a cycle of drug addition, 28 min rest and 2 min stimulation.
as §2
Values for EC50, for maximal effect (Emax) and for the s.e.mean or 95% confidence limits of these values have been calculated by nonlinear regression analysis using the equation for a sigmoid concentration-response curve (GraphPad Prism).
(§3) The apparent dissociation constant (KB) values for antagonism of agonists by THCV in the vas deferens or [^35S]GTPγS binding assay have been calculated by Schild analysis from the concentration ratio, defined as the concentration of an agonist that elicits a response of a particular size in the presence of a competitive reversible antagonist at a concentration, B, divided by the concentration of the same agonist that produces an identical response in the absence of the antagonist.
Mean values have been compared using Student's two-tailed t-test for unpaired data or one-way analysis of variance (ANOVA) followed by Dunnett's test (GraphPad Prism). […]

[3] = tested on: mouse isolated vas deferens (α1-adrenoceptor agonist phenylephrine hydrochloride); assay: Contractile responses of the vas deferens to phenylephrine; conditions: for contractions induced by phenylephrine: at 1 μM
Method: as §1
Only one addition of phenylephrine was made to each tissue and this was carried out 30 min after the addition of THCV, WIN or drug vehicle.
as §2

[4] = target: T1, hCB2 receptors (CHO cells transfected with hCB2) (Homo sapiens, UniProt P34972); assay: Radioligand displacement assay, CHO-hCB2 cell membranes; conditions: Cheng & Prusoff, read-out: mean Ki, displacement of [3H]CP55940 from specific binding sites
T1 construct: expressed in transfected cells; host or cells: CHO cells

[5] = target: T2, transfected cannabinoid CB2 receptors (CHO-hCB2 cell membranes) (Homo sapiens, UniProt P34972); assay: [35S]GTPγS binding assay, CHO-hCB2 cell membranes; type: biochemical
T2 construct: expressed in transfected cells; host or cells: CHO cells
Method: The conditions used for measuring agonist-stimulated [^35S]GTPγS binding to transfected cannabinoid CB2 receptors were adapted from those used by MacLennan et al. (1998) and Griffin et al. (1999).
(§4) The assays were carried out with GTPγS binding buffer (50 mM Tris-HCl; 50 mM Tris-Base; 5 mM MgCl2; 1 mM EDTA; 100 mM NaCl; 1 mM DTT; 0.1% BSA) in the presence of [^35S]GTPγS and GDP, in a final volume of 500 μl. Binding was initiated by the addition of [^35S]GTPγS to the tubes. Nonspecific binding was measured in the presence of 30 μM GTPγS.
(§5) The drugs were incubated in the assay for 60 min at 30° C. The reaction was terminated by a rapid vacuum filtration method using Tris buffer (50 mM Tris-HCl; 50 mM Tris-Base; 0.1% BSA), and the radioactivity was quantified by liquid scintillation spectrometry.
The concentrations of [^35S]GTPγS and GDP present in the assay varied depending on whether the assay was conducted with mouse brain or transfected cell membranes. […]
Net agonist-stimulated [^35S]GTPγS binding values were calculated by subtracting basal binding values (obtained in the absence of agonist) from agonist-stimulated values (obtained in the presence of agonist) as detailed elsewhere (Ross et al., 1999a). […]

[6] = target: T3, cannabinoid CB1 receptors (mouse brain membranes) (Mus musculus, UniProt P47746); assay: [35S]GTPγS binding assay, mouse brain membranes; type: biochemical; conditions: for Kb: Mean apparent KB, brain membranes, THCV 1000 nM
T3 construct: membranes prepared from healthy brain tissue, which is densely populated with CB1 but not CB2 receptors; from tissue; host or cells: mouse brain membranes
Method: as §4, §5
The concentrations of [^35S]GTPγS and GDP present in the assay varied depending on whether the assay was conducted with mouse brain or transfected cell membranes.
Additionally, mouse brain membranes were preincubated for 30 minutes at 30° C. with 0.5 U ml^−1 adenosine deaminase to remove endogenous adenosine. Agonists and antagonists were stored as a stock solution of 1 or 10 mM in DMSO, the vehicle concentration in all assay tubes being 0.11% DMSO.
as §3
Mean values have been compared using Student's two-tailed t-test for unpaired data or one-way analysis of variance (ANOVA) followed by Dunnett's test (GraphPad Prism). A P-value <0.05 was considered to be significant.

[7] = target: T4, CB1 receptors (mouse brain membranes) (Mus musculus, UniProt P47746); assay: Radioligand displacement assay, mouse brain membranes; type: binding
T4 construct: membranes prepared from healthy brain tissue, which is densely populated with CB1 but not CB2 receptors; from tissue; host or cells: mouse brain membranes
Method: Experiments were performed with membranes prepared from healthy brain tissue, which is densely populated with CB1 but not CB2 receptors (reviewed in Howlett et al. 2002).
Binding was initiated by the addition of either the brain membranes (33 μg protein per tube) or the transfected hCB2 cells (25 μg protein per tube).
All assays were performed at 37° C. for 60 min before termination by addition of ice-cold wash buffer (50 mM Tris buffer, 1 mg ml^−1 bovine serum albumin, pH 7.4) and vacuum filtration using a 24-well sampling manifold and GF/B filters that had been soaked in wash buffer at 4° C. for at least 24 h.
Each reaction tube was washed six times with a 1.2 ml aliquot of wash buffer. The filters were oven-dried for 60 min and then placed in 5 ml of scintillation fluid. Radioactivity was quantified by liquid scintillation spectrometry.
Specific binding was defined as the difference between the binding that occurred in the presence and absence of 1 μM unlabelled CP55940. THCV was stored as a stock solution of 10 mM in DMSO, the vehicle concentration in all assay tubes being 0.1% DMSO.
Values are expressed as means and variability as s.e.mean or as 95% confidence limits. […] Its dissociation constant (Ki value) was calculated using the equation of Cheng & Prusoff (1973).

T3 sequence (P47746 whole entry): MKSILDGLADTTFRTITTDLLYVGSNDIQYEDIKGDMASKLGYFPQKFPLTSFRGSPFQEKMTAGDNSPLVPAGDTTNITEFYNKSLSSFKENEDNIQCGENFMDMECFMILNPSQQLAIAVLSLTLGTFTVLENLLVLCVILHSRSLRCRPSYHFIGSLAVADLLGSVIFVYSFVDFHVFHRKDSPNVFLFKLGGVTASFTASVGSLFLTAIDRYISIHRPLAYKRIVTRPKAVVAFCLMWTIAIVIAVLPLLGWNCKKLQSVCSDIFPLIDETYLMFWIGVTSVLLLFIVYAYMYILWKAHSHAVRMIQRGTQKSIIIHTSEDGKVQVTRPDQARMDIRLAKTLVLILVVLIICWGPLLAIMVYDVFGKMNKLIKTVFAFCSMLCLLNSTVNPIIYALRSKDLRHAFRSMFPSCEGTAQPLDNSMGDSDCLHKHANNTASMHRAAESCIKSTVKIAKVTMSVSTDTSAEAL
T4 sequence (P47746 whole entry): as above
T2 sequence (P34972 whole entry): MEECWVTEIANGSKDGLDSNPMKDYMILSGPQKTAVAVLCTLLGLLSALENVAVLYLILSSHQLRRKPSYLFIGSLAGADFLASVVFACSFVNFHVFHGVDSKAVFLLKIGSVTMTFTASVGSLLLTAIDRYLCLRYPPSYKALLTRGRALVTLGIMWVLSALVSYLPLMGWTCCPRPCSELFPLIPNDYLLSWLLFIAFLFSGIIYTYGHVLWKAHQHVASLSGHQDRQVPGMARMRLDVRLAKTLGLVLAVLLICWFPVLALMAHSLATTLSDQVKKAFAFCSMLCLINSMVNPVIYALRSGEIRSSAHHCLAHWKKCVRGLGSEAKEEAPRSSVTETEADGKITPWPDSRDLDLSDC
T1 sequence (P34972 whole entry): as above

With Cc1c(C(=O)c2cccc3ccccc23)c2cccc3c2n1[C@H](CN1CCOCC1)CO3 [R-(+)-WIN55212, reference compound] the “contractions induced by β,γ-methylene-ATP” value [1] was “did not decrease”, the “inhibition of electrically-evoked contractions” value ([2]; at 1 μM) was “markedly attenuated” and the “contractions induced by phenylephrine” value [3] was “did not decrease”.
CCCc1cc(O)c2c(c1)OC(C)(C)[C@@H]1CCC(C)=C[C@@H]21 [THCV, tetrahydrocannabivarin] was tested, and the Ki [4] was 62.8 nM, the Kb [5] was 10.1 nM and the “effect by itself on [35S]GTPγS binding” value ([5]; CHO-hCB2 cell membranes, at antagonist concentrations) was “did not affect”. The “contractions induced by β,γ-methylene-ATP” value [1] was “did not induce any significant reduction”, the “contractile responses to β,γ-methylene-ATP” value ([1]; at 31.6 μM) was “attenuated” and the Kb ([6]; agonist CP55940, SR141716A 10 nM) was 93.1 nM. For the same molecule, the Kb ([6]; agonist R-(+)-WIN55212) was 85.4 nM, the “effect by itself on [35S]GTPγS binding” value ([6]; mouse brain membranes, at antagonist concentrations) was “did not affect” and the EC50 ([7]; EC50, displacement of [3H]CP55940, mouse brain membranes, n=4 to 8) was 98.2 nM. For the same molecule, the EC50 ([7]; mean EC50, displacement of [3H]R-(+)-WIN55212, mouse brain membranes, n=4 to 7) was 61.3 nM, the EC50 ([7]; mean EC50, displacement of [3H]SR141716A, mouse brain membranes, n=4 to 6) was 86.8 nM and the Ki ([7]; mouse brain membranes, Cheng & Prusoff, read-out: mean Ki, displacement of [3H]CP55940 from specific binding sites) was 75.4 nM. For the same molecule, the Kb ([2]; Mus musculus, twitch inhibitor 7-OH-CBD-DMH, THCV 100 nM, read-out: Mean apparent KB of THCV) was > 100 nM, the Kb ([2]; Mus musculus, twitch inhibitor CP55940, THCV 100 nM, read-out: Mean apparent KB of THCV) was 10.3 nM and the Kb ([2]; Mus musculus, twitch inhibitor R-(+)-WIN55212, THCV 10-1000 nM, Tallarida method, read-out: Mean apparent KB of THCV) was 1.5 nM. For the same molecule, the Kb ([2]; Mus musculus, twitch inhibitor THC, THCV 1000 nM, read-out: Mean apparent KB of THCV) was 96.7 nM, the Kb ([2]; Mus musculus, twitch inhibitor anandamide, THCV 10 nM, read-out: mean apparent KB for antagonism of anandamide) was 1.4 nM and the Kb ([2]; Mus musculus, twitch inhibitor anandamide, THCV 100 nM, read-out: Mean apparent KB of THCV) was 1.2 nM. The Kb ([2]; Mus musculus, twitch inhibitor capsaicin, THCV 100 nM, read-out: Mean apparent KB of THCV) was > 100 nM, the Kb ([2]; Mus musculus, twitch inhibitor clonidine, THCV 100 nM, read-out: Mean apparent KB of THCV) was > 100 nM and the Kb ([2]; Mus musculus, twitch inhibitor methanandamide, THCV 100 nM, read-out: Mean apparent KB of THCV) was 4.6 nM. For the same molecule, the EC50 ([2]; Mus musculus, compound alone, read-out: EC50, inhibition of electrically-evoked contractions) was 12700 nM, the “inhibition of electrically-evoked contractions in presence of SR141716A” value ([2]; SR141716A 100 nM, n=7) was “not attenuated” and the “concentration above which electrically-evoked contractions were inhibited” value ([2]; SR141716A-independent manner) was “above 3 μM”. The “antagonism of THC-induced twitch inhibition” value ([2]; THCV 100 nM, n=11) was “Nor did 100 nM THCV antagonize”, the “inhibition of electrically-evoked contractions” value ([2]; at 1 μM) was “no detectable inhibitory effect” and the “inhibition of electrically-evoked contractions” value ([2]; at 31.6 μM) was “marked inhibition”. For the same molecule, the “contractions induced by phenylephrine” value [3] was “did not induce any significant reduction” and the “contractile responses to phenylephrine hydrochloride” value ([3]; at 31.6 μM) was “attenuated”.
